Source: US20260356887A1, “NOVEL MYD88 INHIBITOR FOR TREATMENT OF AUTOIMMUNE DISEASES AND USES THEREOF” (S&K THERAPEUTICS, priority 2023, published 2026)
Counter-ions that a name gives are not always drawn. No end group written: not given here.

Columns and labels:
[1] = test system: C57BL/6 mice with MOG35-55-induced EAE; experiment: MOG35-55-induced experimental autoimmune encephalomyelitis (EAE) model; type: in vivo, mouse
Description: Eight-week-old female C57BL/6 (B6) mice (Orient Bio, Korea) were maintained in a specific pathogen-free environment on a standard laboratory ad libitum diet. All experiments were approved by the Animal Care and Use Committee [NDIC Approval Nos. 12022111 (EAE) and I2022053-3 (psoriasis), Hwaseong, Korea] and were performed in accordance with relevant guidelines and regulations.
EAE was induced in mice using the Hooke Kit (MOG35-55/complete Freund's adjuvant (CFA) Emulsion PTX (Hooke Laboratories, LLC, Lawrence, MA, USA)) according to the manufacturer's protocol. Mice were immunized subcutaneously with myelin oligodendrocyte glycoprotein emulsified in complete Freund's adjuvant. […]
Mice were weighed and examined daily, and EAE symptoms were assessed using the following standard scoring system: 0-6: 0, no symptoms; 1, limp tail; 2, limp tail and hind limb paralysis; 3, paralysis of one or more hind limbs; 4, complete hind limb and hindquarter paralysis; 5, hindquarter paralysis with forelimb paralysis; and 6, death. […]
To investigate the therapeutic potential of MyDIP2-4 on EAE progression, mice were immunized with MOG35-55 peptide in CFA and pertussis toxin was administered once on day 0 and again 24 hours later. […] Mouse body weight and EAE clinical scores were recorded three times a week: days 0, 2, 5, 7, 9, 12, 14, 16, 19, and 21.

[2] = test system: RAW 264.7 cells; experiment: Macrophage viability (MTT assay) in RAW 264.7 cells; type: cell-based; details: mouse macrophages; 50 μM; 24 hours
Description: THP-1 and RAW 264.7 cells (ATCC, Manassas, VA, USA) were cultured at 37 °C and 5% CO2 in RPMI (Roswell Park Memorial Institute) medium and Dulbecco's modified Eagle medium supplemented with fetal bovine serum (FBS, 10%), 4 mM L-glutamine, 1 mM sodium pyruvate, penicillin (100 units/ml), and streptomycin (0.1 mg/ml). THP-1 cells, which are monocytes, were differentiated into macrophages by treatment with 80 nM phorbol 12-myristate 13-acetate (PMA, Sigma-Aldrich) for 24 hours. The cells were cultured at 37 °C and 5% CO2 in a humidified incubator (Thermo Fisher Scientific, Inc.), and the medium was replaced every 18 hours.
To evaluate the cytotoxic effect of the peptide on mouse and human macrophages, RAW 264.7 cells and THP-1-derived macrophages were seeded at respective densities of 5×10^4/well and 2×10^5/well in 96-well plates (BD Biosciences, San Jose, CA, USA) followed by culture overnight at 37 °C in a humidified incubator. After treating the cells with the peptide at the corresponding concentration for 24 hours, viability was measured using 3-(4,5-dimethylthiazol-2-yl)-2,5-diphenyltetrazolium bromide (MTT) assay (Sigma-Aldrich). […] Relative cell viability was calculated by measuring absorbance at 570 nm, and the untreated control group was designated as having a relative viability of 100%. […]

[3] = molecular target: human MyD88 protein (Homo sapiens, UniProt Q99836); experiment: Surface plasmon resonance (SPR) analysis of MyDIP2-4 and MyD88; type: binding; details: MyD88 immobilized on NTA chip, MyDIP2-4 0.8 to 12.8 μM in PBS
human MyD88 protein, sequence (Q99836 whole entry): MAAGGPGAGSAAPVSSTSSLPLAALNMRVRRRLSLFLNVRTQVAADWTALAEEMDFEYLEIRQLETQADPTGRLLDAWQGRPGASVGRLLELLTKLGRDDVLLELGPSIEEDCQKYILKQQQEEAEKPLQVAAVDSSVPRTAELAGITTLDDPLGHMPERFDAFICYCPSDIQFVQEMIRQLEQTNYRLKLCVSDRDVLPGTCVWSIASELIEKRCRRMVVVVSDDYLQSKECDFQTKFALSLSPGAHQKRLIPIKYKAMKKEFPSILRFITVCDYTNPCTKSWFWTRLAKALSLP
Description: The biophysical interactions between MyDIP2-4 and MyD88 were evaluated using SPR analysis in an iMSPR-mini system (icluebio, Seongnam, Korea). MyD88 protein was immobilized on the surface of a nitrilotriacetic acid (NTA) sensor chip at a concentration of 50 μg/ml. MyDIP2-4 was injected into the MyD88-binding chip at various concentrations ranging from 0.8 to 12.8 μM (dissolved in PBS) at a flow rate of 50 μl/min. PBS was used as a running buffer and injected into the empty channel as a reference. Experiments were performed twice using freshly prepared reagents, and data were analyzed using TraceDrawer software (Ridgeview Instruments; Uppsala, Sweden).
SPR technology was used to evaluate the biophysical interaction between the MyDIP2-4 peptide and the MyD88 protein. SPR analysis involves immobilizing the MyD88 protein on the surface of a sensor chip and then flowing the MyDIP2-4 peptide at various concentrations.

[4] = test system: C57BL/6 mice with IMQ-induced psoriasis; experiment: Imiquimod-induced psoriasis model; type: in vivo, mouse; details: MyDIP2-4 5 and 20 mg/kg i.p., dexamethasone 10 mg/kg oral
Description: Six-week-old female C57BL/6 mice (Orient Bio, Seongnam, Korea) were housed under specific pathogen-free conditions on a standard laboratory ad libitum diet. Animal experiments related to psoriasis were approved by the Animal Care and Use Committee [NDIC Approval Nos. 12022111 (EAE) and I2022053-3 (psoriasis), Hwaseong, Korea] and were performed in accordance with relevant guidelines and regulations.
Disease was induced by topical application of Aldara cream (Donga ST; Seoul, Korea) containing 5% imiquimod onto the back of six-week-old female C57BL/6 mice for 5 consecutive days. MyDIP2-4 was administered intraperitoneally at doses of 5 and 20 mg/kg. As a positive control group, dexamethasone (Sigma-Aldrich; cat. No. D1756) was administered orally at a dose of 10 mg/kg. Five days later, mice were sacrificed under respiratory anesthesia, and skin lesions were collected for histological examination.
An objective scoring system to quantify the severity of back skin inflammation was established based on the PASI scoring system, a widely used clinical tool to assess psoriasis severity. On a scale from 0 to 4, factors such as erythema, scaling, wrinkles, and thickness were individually assessed as follows: 0, none; 1, weak; 2, moderate; 3, significant; and 4, very evident. Under the careful supervision of experienced investigators, erythema, scaling, and thickness were graded. The cumulative score (erythema+scaling+thickness score, scale 0-12) indicates the severity of psoriasis symptoms.
Skin tissue was removed, the upper layer was fixed in neutral formalin, and H&E staining and IHC were performed. Epidermal thickness of skin tissue was measured using H&E staining. IL-17, KI-67, and IL-23 levels were measured using IHC with the aid of antibodies against IL-17A (Thermo Fisher Scientific; cat. No. PA5-79470), KI-67 (Cell Signaling; cat. No. 12202), and IL-23 (Novus Biologicals; cat. No. NBP1-76697).
To establish an IMQ-induced psoriasis model, Aldara cream containing 5% imiquimod was topically applied onto the back of six-week-old female C57BL/6 mice for 5 consecutive days. […]

Molecule: COC(=O)/C=C/C(=O)OC [DMF, dimethyl fumarate]
- EAE clinical score compared to MyDIP2-4 ([1]; day 21, DMF 100 mg/kg vs MyDIP2-4 40 mg/kg): reduced clinical scores

Molecule: RQIKIWFQNRRMKWKKWLWFILFKKLSLP [MyDIP2-4]
- cytotoxicity (MTT) [2]: not cytotoxic
- kon ([3]; read-out: rate constant for association (Ka)): 3.7 M⁻¹ s⁻¹
- koff ([3]; read-out: rate constant for dissociation (Kd)): 1.37e-07 s⁻¹
- body weight compared to DMF-treated mice (EAE) ([1]; MyDIP2-4 40 mg/kg i.p. once daily, DMF 100 mg/kg): no difference in body weight

Molecule: C[C@@H]1C[C@H]2[C@@H]3CCC4=CC(=O)C=C[C@]4(C)[C@@]3(F)[C@@H](O)C[C@]2(C)[C@@]1(O)C(=O)CO [dexamethasone]
- epidermal thickness ([4]; H&E): significantly reduced
- IL-17 expression in skin tissue ([4]; IHC): did not inhibit
- KI-67 in skin tissue (KI-67-positive cells) ([4]; IHC): significant decrease
